Results published in patent US9708336B2, “Metallo-beta-lactamase inhibitors” (priority 2014, dated 2017).
Where two headings read alike, the source gives them in different places.

Legend:
IMP-1 = IMP-1 (Serratia marcescens, UniProt P52699); test: biochemical; type: biochemical; conditions: read-out: IMP-1 IC50
VIM-1 = VIM-1 (Pseudomonas aeruginosa (strain ATCC 15692 / DSM 22644 / CIP 104116 / JCM 14847 / LMG 12228 / 1C / PRS 101 / PAO1), UniProt A0A0F7KYQ8); test: Enzyme activity: determination of IC50, fluorescence assay with CCF2-FA substrate (VIM-1); type: biochemical
Procedure: Enzyme Activity: Determination of IC50
The Class B enzyme activities were measured in the presence of the test inhibitor in a fluorescence assay against a commercially available substrate consisting of a cephalosporin core linking 7-hydroxycoumarin to fluorescein (CCF2-FA). The enzyme (NDM-1, IMP-1 or VIM-1) and the substrate were diluted in 100 mM KH2PO4 buffer (pH 7) containing 0.005% Tween-20 and 10 μM ZnSO4. […] The test inhibitor was dissolved in dimethylsulfoxide and diluted 1:50 in the assay, resulting in a final concentration range of 20 uM to 0.00063 uM. In a 384-well microplate, the test inhibitor was incubated with the metallo-β-lactamase enzyme and the substrate for 2 hours at 25° C. Fluorescence at 460 nm following excitation at 405 nm was measured. The IC50 value was determined from semi-logarithmic plots of enzyme inhibition versus inhibitor concentration, with a curve generated using a 4-parameter fit.

[1] = tested on: Escherichia coli expressing NDM-1 (CLB30016); test: Antibiotic potentiation activity: synergistic concentration (MITC95) with imipenem, OD600 growth; type: cell-based; conditions: for Escherichia coli expressing NDM-1 (CLB 30016) MITC95: concentration giving 95% inhibition of bacterial growth
Outline: (§1)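 Steps: colonies grown overnight at 35 °C; resuspended in saline to OD600 0.11–0.15 by strain; diluted 1:100 into 1.1× CAMHB; imipenem then compound added (antibiotic 4 μg/ml in assay); incubated 35 °C for 22–24 h; absorbance measured.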

[2] = tested on: Klebsiella pneumoniae expressing VIM-1 (IHMA599644); test: as above; type: cell-based; conditions: for Klebsiella pneumoniae expressing VIM-1 (IHMA 599644) MITC95: concentration giving 95% inhibition of bacterial growth
Outline: as §1

[3] = tested on: Serratia marcescens expressing IMP-1 (CL5741); test: as above; type: cell-based; conditions: for Serratia marcescens expressing IMP-1 (CL5741) MITC95: concentration giving 95% inhibition of bacterial growth
Outline: as §1

NDM-1 = NDM-1 (Klebsiella pneumoniae, UniProt C7C422); test: biochemical; type: biochemical; conditions: read-out: NDM-1 IC50
[4] = IMP-1 enzyme, CCF2-FA substrate
[5] = VIM-1 enzyme, CCF2-FA substrate, read-out: VIM-1 IC50
[6] = (CLB30016, NDM-1), 95% growth inhibition
[7] = Klebsiella pneumoniae IHMA599644 (VIM-1), 95% growth inhibition
[8] = Serratia marcescens CL5741 (IMP-1), 95% growth inhibition
[9] = NDM-1 enzyme, CCF2-FA substrate
[10] = IMP-1 enzyme, CCF2-FA fluorescence assay
[11] = VIM-1 enzyme, CCF2-FA fluorescence assay, read-out: VIM-1 IC50
[12] = Escherichia coli expressing NDM-1 (CLB30016), 95% growth inhibition
[13] = Klebsiella pneumoniae expressing VIM-1 (IHMA599644), 95% growth inhibition
[14] = Serratia marcescens expressing IMP-1 (CL5741), 95% growth inhibition
[15] = NDM-1 enzyme, CCF2-FA fluorescence assay
[16] = fluorescence assay with CCF2-FA substrate
[17] = fluorescence assay with CCF2-FA substrate, read-out: VIM-1 IC50
[18] = CLB30016 (NDM-1), 95% inhibition of bacterial growth
[19] = IHMA599644 (VIM-1), 95% inhibition of bacterial growth
[20] = CL5741 (IMP-1), 95% inhibition of bacterial growth

Sequence of IMP-1 (P52699 whole entry, looked up): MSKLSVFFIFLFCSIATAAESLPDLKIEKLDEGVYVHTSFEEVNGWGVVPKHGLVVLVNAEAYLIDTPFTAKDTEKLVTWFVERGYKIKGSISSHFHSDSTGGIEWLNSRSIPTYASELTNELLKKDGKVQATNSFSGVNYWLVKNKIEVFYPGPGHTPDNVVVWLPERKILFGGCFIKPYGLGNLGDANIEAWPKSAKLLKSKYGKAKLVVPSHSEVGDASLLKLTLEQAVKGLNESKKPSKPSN
Sequence of NDM-1 (C7C422 whole entry, looked up, species assumed): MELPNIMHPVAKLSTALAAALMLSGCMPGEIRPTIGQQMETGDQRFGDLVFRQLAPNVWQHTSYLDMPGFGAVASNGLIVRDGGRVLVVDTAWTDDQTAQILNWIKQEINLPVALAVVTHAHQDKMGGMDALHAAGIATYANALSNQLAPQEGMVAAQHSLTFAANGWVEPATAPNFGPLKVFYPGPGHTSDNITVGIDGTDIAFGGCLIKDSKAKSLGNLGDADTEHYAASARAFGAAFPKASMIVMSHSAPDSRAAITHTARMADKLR

Row | SMILES | IC50 (IMP-1; [10]) [nM] | IC50 (VIM-1; [11]) [nM] | Escherichia coli MITC95 [1, 12] [µM] | Klebsiella pneumoniae MITC95 [2, 13] [µM] | Serratia marcescens MITC95 [3, 14] [µM] | IC50 (NDM-1; [15]) [nM] | IC50 (IMP-1; [16]) [nM] | IC50 (VIM-1; [17]) [nM] | IC50 (NDM-1; [16]) [nM] | also measured
1 | N=C(NC1CCNC1)c1ccc(-c2ccc(C(F)(F)F)c(S(N)(=O)=O)c2-c2nn[nH]n2)cc1 (stereo not drawn) [Example 564, N-(pyrrolidin-3-yl)-3′-sulfamoyl-2′-(2H-tetrazol-5-yl)-4′-(trifluoromethyl)biphenyl-4-carboximidamide] | – | – | – | – | – | – | – | – | – | IC50 (IMP-1; [4]): 301 nM; IC50 (VIM-1; [5]): 36.3 nM; Escherichia coli MITC95 [1, 6]: 25 µM; Klebsiella pneumoniae MITC95 [2, 7]: 50 µM; Serratia marcescens MITC95 [3, 8]: 25 µM; IC50 (NDM-1; [9]): 262 nM
2 | NC(=O)c1ccc2cc(-c3cccc(S(N)(=O)=O)c3-c3nn[nH]n3)ccc2n1 [Example 288, 6-(3-sulfamoyl-2-(2H-tetrazol-5-yl)phenyl)quinoline-2-carboxamide] | 88.9 | 9.78 | 1.563 | 75 | 9.375 | 1.31 | – | – | – | –
3 | NS(=O)(=O)c1nccc(NCCc2ccccc2)c1-c1nnn[nH]1 [Example 237, 4-[(2-phenylethyl)amino]-3-(1H-tetrazol-5-yl)pyridine-2-sulfonamide] | – | – | – | – | – | – | 581 | 239 | 102 | Escherichia coli expressing NDM-1 (CLB 30016) MITC95 [1]: 18.75 µM; Klebsiella pneumoniae expressing VIM-1 (IHMA 599644) MITC95 [2]: >200 µM; Serratia marcescens expressing IMP-1 (CL5741) MITC95 [3]: 125 µM
4 | CC(C)(C)C(=O)NCC1CCN(c2ccc(C(F)(F)F)c(S(N)(=O)=O)c2-c2nnn[nH]2)CC1 [Example 760, 2,2-dimethyl-N-({1-[3-sulfamoyl-2-(1H-tetrazol-5-yl)-4-(trifluoromethyl)phenyl]piperidin-4-yl}methyl) propanamide] | – | – | – | – | – | – | 2.08 | 1.51 | 5.64 | Escherichia coli MITC95 [1, 18]: 100 µM; Klebsiella pneumoniae MITC95 [2, 19]: 100 µM; Serratia marcescens MITC95 [3, 20]: 25 µM
5 | Cc1ccc(-c2ccc(C(F)(F)F)c(S(N)(=O)=O)c2-c2nn[nH]n2)cc1 [Example 268, 4′-methyl-2-(2H-tetrazol-5-yl)-4-(trifluoromethyl)-[1,1′-biphenyl]-3-sulfonamide] | 1.64 | 0.898 | 2.229 | 9.375 | 0.25 | 2.01 | – | – | – | –
6 | NS(=O)(=O)c1c(CC2CCNCC2)ccc(-c2ccc(C3CCNCC3)cc2)c1-c1nn[nH]n1 [Example 456, 4′-(piperidin-4-yl)-4-(piperidin-4-ylmethyl)-2-(2H-tetrazol-5-yl)-[1,1′-biphenyl]-3-sulfonamide] | 9.79 | 3.44 | 0.5859 | 1.172 | 0.5859 | 4.58 | – | – | – | –
7 | NS(=O)(=O)c1c(C(F)(F)F)ccc(N2CCC[C@H](O)C2)c1-c1nnn[nH]1 [Example 657, 3-[(3S)-3-hydroxypiperidin-1-yl]-2-(1H-tetrazol-5-yl)-6-(trifluoromethyl)benzenesulfonamide] | – | – | – | – | – | – | – | – | – | IC50 (IMP-1; [4]): 10.2 nM; IC50 (VIM-1; [5]): 2.09 nM; Escherichia coli MITC95 [1, 6]: 2.344 µM; Klebsiella pneumoniae MITC95 [2, 7]: 4.688 µM; Serratia marcescens MITC95 [3, 8]: 0.7813 µM; IC50 (NDM-1; [9]): 9.66 nM
8 | NS(=O)(=O)c1c(C(F)(F)F)ccc(-c2cnc3cc[nH]c3c2)c1-c1nnn[nH]1 [Example 474, 3-(1H-pyrrolo[3,2-b]pyridin-6-yl)-2-(1H-tetrazol-5-yl)-6-(trifluoromethyl)benzenesulfonamide] | 3.91 | 0.549 | 0.09375 | 1.531 | 0.4453 | 0.523 | – | – | – | –
9 | Nc1ccc(-c2ccc(CC[C@H]3CC[C@@H](N)CC3)c(S(N)(=O)=O)c2-c2nnn[nH]2)cn1 [Example 578, 6-(2-((1s,4r)-4-aminocyclohexyl)ethyl)-3-(6-aminopyridin-3-yl)-2-(1H-tetrazol-5-yl)benzenesulfonamide] | – | – | – | – | – | – | – | – | – | IC50 (IMP-1; [4]): 47.1 nM; IC50 (VIM-1; [5]): 11.1 nM; Escherichia coli MITC95 [1, 6]: 3.125 µM; Klebsiella pneumoniae MITC95 [2, 7]: 50 µM; Serratia marcescens MITC95 [3, 8]: 12.5 µM; IC50 (NDM-1; [9]): 1.85 nM
10 | NS(=O)(=O)c1c(C(F)(F)F)ccc(N2CCN(CCO)CC2)c1-c1nnn[nH]1 [Example 759, 3-[4-(2-hydroxyethyl)piperazin-1-yl]-2-(1H-tetrazol-5-yl)-6-(trifluoromethyl) benzenesulfonamide] | – | – | – | – | – | – | 40.9 | 45.6 | 22.5 | Escherichia coli MITC95 [1, 18]: 3.125 µM; Klebsiella pneumoniae MITC95 [2, 19]: 12.5 µM; Serratia marcescens MITC95 [3, 20]: 3.125 µM
11 | NCCN1CCC(c2ccc(-c3cccc(S(N)(=O)=O)c3-c3nnn[nH]3)cc2)CC1 [Example 616, 3-[4-[1-(2-aminoethyl)-4-piperidyl]phenyl]-2-(1H-tetrazol-5-yl)benzenesulfonamide] | – | – | – | – | – | – | – | – | – | IC50 (IMP-1; [4]): 14.4 nM; IC50 (VIM-1; [5]): 276 nM; Escherichia coli MITC95 [1, 6]: 0.3906 µM; Klebsiella pneumoniae MITC95 [2, 7]: 75 µM; Serratia marcescens MITC95 [3, 8]: 0.5859 µM; IC50 (NDM-1; [9]): 4.37 nM
12 | NS(=O)(=O)c1nccc(N2CCC(Cc3ccncc3)CC2)c1-c1nnn[nH]1 [Example 238, 4-[4-(pyridin-4-ylmethyl)piperidin-1-yl]-3-(1H-tetrazol-5-yl)pyridine-2-sulfonamide] | – | – | – | – | – | – | 188 | – | 30.8 | IC50 (VIM-1; VIM-1 IC50, fluorescence assay with CCF2-FA substrate): 96.9 nM; Escherichia coli expressing NDM-1 (CLB 30016) MITC95 [1]: 3.125 µM; Klebsiella pneumoniae expressing VIM-1 (IHMA 599644) MITC95 [2]: 125 µM; Serratia marcescens expressing IMP-1 (CL5741) MITC95 [3]: 9.375 µM
13 | NC1CCC(N2CCC(c3ccc(-c4ccc(C(F)(F)F)c(S(N)(=O)=O)c4-c4nnn[nH]4)cc3)CC2)C1 (stereo not drawn) [Example 786, 4′-[1-(3-aminocyclopentyl)piperidin-4-yl]-2-(1H-tetrazol-5-y)-4-(trifluoromethyl)biphenyl-3-sulfonamide] | – | – | – | – | – | – | 2.08 | 12 | 6.2 | Escherichia coli MITC95 [1, 18]: 1.563 µM; Klebsiella pneumoniae MITC95 [2, 19]: 50 µM; Serratia marcescens MITC95 [3, 20]: 3.125 µM
14 | NS(=O)(=O)c1c(C(F)(F)F)ccc(N2CCC(N3CCNCC3)C2)c1-c1nnn[nH]1 (stereo not drawn) [Example 770, 3-(3-piperazin-1-ylpyrrolidin-1-yl)-2-(1H-tetrazol-5-yl)-6-(trifluoromethyl) benzenesulfonamide] | – | – | – | – | – | – | 251 | 7.51 | 366 | Escherichia coli MITC95 [1, 18]: 50 µM; Klebsiella pneumoniae MITC95 [2, 19]: 3.125 µM; Serratia marcescens MITC95 [3, 20]: 50 µM
15 | Cl.Cl.NC1(c2ccc(-c3cccc(S(N)(=O)=O)c3-c3nn[nH]n3)cc2)CCNCC1 [Example 283, 4′-(4-aminopiperidin-4-yl)-2-(2H-tetrazol-5-yl)-[1,1′-biphenyl]-3-sulfonamide dihydrochloride] | 500 | 308 | 0.5859 | 12.5 | 2.344 | 33 | – | – | – | –
16 | NS(=O)(=O)c1cccc(-c2ccc(CNC3CCNC3=O)cc2)c1-c1nnn[nH]1 (stereo not drawn) [Example 388, 4′-{[(2-oxopyrrolidin-3-yl)amino]methyl}-2-(1H-tetrazol-5-yl)biphenyl-3-sulfonamide] | 48.6 | – | 1.563 | 200 | 1.563 | 4.28 | – | – | – | IC50 (VIM-1; VIM-1 IC50, VIM-1 enzyme, CCF2-FA fluorescence assay): 273 nM
